Data from US7009045B2 (priority 2000, dated 2006).

Key:
Type in all cases: cell-based
[1] = test system: Pichia guilliermondii wild type and regulatory mutants (rib81); assay: Sensitivity after electroporation to K2Cr2O7, Burkholder medium with 0.3 M sucrose (Table 22); settings: Cr^+6 100 to 600 μM
[2] = test system: Pichia guilliermondii wild type and regulatory mutants (rib81); assay: Sensitivity after electroporation to K2Cr2O7, medium with 0.5% glycerol (Table 21); parameters: key: +++: strong growth; ++: weak growth; —: absence of growth
From the text: The possibility for positive selection of P. guilliermondii rib81 transformants unable to overproduce riboflavin in minimal medium was studied. For this, the toxicity of K2Cr2O7 (Cr^+6) was compared for the P. guilliermondii wild-type strain ATCC 9058 and regulatory mutants P. guilliermondii rib81 9-20 and 20-2. The cells were pregrown in liquid YPD to OD 1.5–2.0 (540 nm) and electroporated according to the protocol described (Example 34). Electroporated cells were washed three times with 10×volume of 0.6 M KCl and then the volume was adjusted to 1 ml. Then the cells were plated at 0.2 ml suspension per plate which contained 0.5% glycerol, 0.6 M KCl and K2Cr2O7 (50–1000 μM).
The visual selection of the non-overproducing riboflavin transformants is rather arbitrary and uncertain. Therefore it was decided to develop the method for positive selection of the transformants using tentative differences in sensitivity to K2Cr2O7 of wild-type P. guilliermondii and the regulatory mutants rib81 9-20 and 20-2. After 6 days of cultivation in the medium with 0.5% glycerol, it was shown that K2Cr2O7 at 150–180 μM inhibited growth of regulatory mutant 9-20 more strongly than that of the wild strain (Table 21).

[3] = test system: Pichia guilliermondii wild type and regulatory mutants (rib81); assay: Sensitivity after electroporation to K2Cr2O7, Burkholder medium with 0.3 M sucrose (Table 22); parameters: key: +++: strong growth; ++: weak growth; —: absence of growth

[K+].[K+].[O]=[Cr](=[O])([O-])[O][Cr](=[O])(=[O])[O-] [K2Cr2O7]
difference in sensitivity between regulatory mutants and the wild type [1]: no differences in sensitivity
growth ([2]; #9-20 (leu2), K2Cr2O7 75 μM): +++
growth ([2]; #9-20 (leu2), K2Cr2O7 100 μM): ++
growth ([2]; #9-20 (leu2), K2Cr2O7 150 μM): —
growth ([2]; #9-20 (leu2), K2Cr2O7 185 μM): —
growth ([2]; #9-20 (leu2), K2Cr2O7 240 μM): —
growth ([2]; ATCC9058, K2Cr2O7 75 μM): +++
growth ([2]; ATCC9058, K2Cr2O7 100 μM): +++
growth ([2]; ATCC9058, K2Cr2O7 125 μM): +++
growth ([2]; ATCC9058, K2Cr2O7 150 μM): +++
growth ([2]; ATCC9058, K2Cr2O7 185 μM): ++
growth ([2]; ATCC9058, K2Cr2O7 240 μM): —
growth ([3]; #9-20 (leu2), K2Cr2O7 100 μM): +++
growth ([3]; #9-20 (leu2), K2Cr2O7 150 μM): +++
growth ([3]; #9-20 (leu2), K2Cr2O7 200 μM): +++
growth ([3]; #9-20 (leu2), K2Cr2O7 250 μM): +++
growth ([3]; #9-20 (leu2), K2Cr2O7 300 μM): +++
growth ([3]; #9-20 (leu2), K2Cr2O7 350 μM): +++
growth ([3]; #9-20 (leu2), K2Cr2O7 450 μM): —
growth ([3]; #9-20 (leu2), K2Cr2O7 500 μM): —
growth ([3]; #9-20 (leu2), K2Cr2O7 550 μM): —
growth ([3]; #9-20 (leu2), K2Cr2O7 600 μM): —
growth ([3]; ATCC9058, K2Cr2O7 100 μM): +++
growth ([3]; ATCC9058, K2Cr2O7 150 μM): +++
growth ([3]; ATCC9058, K2Cr2O7 200 μM): +++
growth ([3]; ATCC9058, K2Cr2O7 250 μM): +++
growth ([3]; ATCC9058, K2Cr2O7 300 μM): +++
growth ([3]; ATCC9058, K2Cr2O7 350 μM): +++
growth ([3]; ATCC9058, K2Cr2O7 450 μM): —
growth ([3]; ATCC9058, K2Cr2O7 500 μM): —
growth ([3]; ATCC9058, K2Cr2O7 550 μM): —
growth ([3]; ATCC9058, K2Cr2O7 600 μM): —
